Where two headings read alike, the source gives them in different places.
Key:
[1] = molecular target: T1, MELK (Homo sapiens, UniProt Q14680); assay: Kinome profiler screen; format: biochemical; conditions: at 20,000 nM inhibitor; kinase activity remaining
T1 construct: purchased Millipore KinaseProfiler

[2] = molecular target: T2, CaMKIV (Homo sapiens, UniProt Q16566); assay: Kinome profiler screen; format: biochemical; conditions: at 20,000 nM inhibitor; kinase activity remaining
T2 construct: purchased Millipore KinaseProfiler

[3] = test system: BV-2 cells; assay: IL-1β production in BV-2 cells stimulated with TLR ligands; format: cell-based, murine; conditions: ligands for TLR2, TLR4, TLR7/8, TLR9
[4] = molecular target: T3, Snk (Homo sapiens, UniProt Q9NYY3); assay: Kinome profiler screen; format: biochemical; conditions: at 20,000 nM inhibitor; kinase activity remaining
T3 construct: purchased Millipore KinaseProfiler

[5] = molecular target: T4, Lck (Homo sapiens, UniProt P06239); assay: Kinome profiler screen; format: biochemical; conditions: at 20,000 nM inhibitor; kinase activity remaining
T4 construct: purchased Millipore KinaseProfiler

[6] = molecular target: T5, Pim-3 (Homo sapiens, UniProt Q86V86); assay: Kinome profiler screen; format: biochemical; conditions: at 20,000 nM inhibitor; kinase activity remaining
T5 construct: purchased Millipore KinaseProfiler

[7] = molecular target: T6, PKG1β (Homo sapiens, UniProt Q13976); assay: Kinome profiler screen; format: biochemical; conditions: at 20,000 nM inhibitor; kinase activity remaining
T6 construct: purchased Millipore KinaseProfiler

[8] = molecular target: T7, PKCβII (Homo sapiens, UniProt P05771); assay: Kinome profiler screen; format: biochemical; conditions: at 20,000 nM inhibitor; kinase activity remaining
T7 construct: purchased Millipore KinaseProfiler

[9] = molecular target: T8, CDK5/p25 (Homo sapiens, UniProt Q00535); assay: Kinome profiler screen; format: biochemical; conditions: at 20,000 nM inhibitor; kinase activity remaining
T8 construct: purchased Millipore KinaseProfiler

[10] = molecular target: T9, SGK (Homo sapiens, UniProt O00141); assay: Kinome profiler screen; format: biochemical; conditions: at 20,000 nM inhibitor; kinase activity remaining
T9 construct: purchased Millipore KinaseProfiler

[11] = molecular target: T10, CK1γ3 (Homo sapiens, UniProt Q9Y6M4); assay: Kinome profiler screen; format: biochemical; conditions: at 20,000 nM inhibitor; kinase activity remaining
T10 construct: purchased Millipore KinaseProfiler

[12] = molecular target: T11, TAO3 (Homo sapiens, UniProt Q9H2K8); assay: Kinome profiler screen; format: biochemical; conditions: at 20,000 nM inhibitor; kinase activity remaining
T11 construct: purchased Millipore KinaseProfiler

[13] = molecular target: T12, Met(D1246H) (Homo sapiens, UniProt P08581, D1228H); assay: Kinome profiler screen; format: biochemical; conditions: at 20,000 nM inhibitor; kinase activity remaining
T12 construct: purchased Millipore KinaseProfiler

[14] = molecular target: T13, JAK2 (Homo sapiens, UniProt O60674); assay: Kinome profiler screen; format: biochemical; conditions: at 20,000 nM inhibitor; kinase activity remaining
T13 construct: purchased Millipore KinaseProfiler

[15] = molecular target: T14, PKCε (Homo sapiens, UniProt Q02156); assay: Kinome profiler screen; format: biochemical; conditions: at 20,000 nM inhibitor; kinase activity remaining
T14 construct: purchased Millipore KinaseProfiler

[16] = molecular target: T15, PrKX (Homo sapiens, UniProt P51817); assay: Kinome profiler screen; format: biochemical; conditions: at 20,000 nM inhibitor; kinase activity remaining
T15 construct: purchased Millipore KinaseProfiler

[17] = molecular target: T16, TrkB (Homo sapiens, UniProt Q16620); assay: Kinome profiler screen; format: biochemical
T16 construct: purchased Millipore KinaseProfiler

[18] = molecular target: T17, TrkA (Homo sapiens, UniProt P04629); assay: Kinome profiler screen; format: biochemical
T17 construct: purchased Millipore KinaseProfiler

[19] = molecular target: T18, GRK6 (Homo sapiens, UniProt P43250); assay: Kinome profiler screen; format: biochemical
T18 construct: purchased Millipore KinaseProfiler

[20] = molecular target: T19, Fgr (Homo sapiens, UniProt P09769); assay: Kinome profiler screen; format: biochemical; conditions: at 20,000 nM inhibitor; kinase activity remaining
T19 construct: purchased Millipore KinaseProfiler

[21] = molecular target: T20, IGF-1R, activated (Homo sapiens, UniProt P08069); assay: Kinome profiler screen; format: biochemical; conditions: at 20,000 nM inhibitor; kinase activity remaining
T20 construct: purchased Millipore KinaseProfiler

[22] = molecular target: T21, CaMKIδ (Homo sapiens, UniProt Q8IU85); assay: Kinome profiler screen; format: biochemical; conditions: at 20,000 nM inhibitor; kinase activity remaining
T21 construct: purchased Millipore KinaseProfiler

[23] = molecular target: T22, cKit(V654A) (Homo sapiens, UniProt P10721, V654A); assay: Kinome profiler screen; format: biochemical; conditions: at 20,000 nM inhibitor; kinase activity remaining
T22 construct: purchased Millipore KinaseProfiler

[24] = molecular target: T23, Rsk1(r) (Rattus norvegicus, UniProt Q63531); assay: Kinome profiler screen; format: biochemical; conditions: at 20,000 nM inhibitor; kinase activity remaining
T23 construct: purchased Millipore KinaseProfiler

[25] = molecular target: T24, DAPK2 (Homo sapiens, UniProt Q9UIK4); assay: Kinome profiler screen; format: biochemical; conditions: at 20,000 nM inhibitor; kinase activity remaining
T24 construct: purchased Millipore KinaseProfiler

[26] = molecular target: T25, LOK (Homo sapiens, UniProt O94804); assay: Kinome profiler screen; format: biochemical; conditions: for activity at 20 µM: at 20,000 nM inhibitor, kinase activity remaining
T25 construct: purchased Millipore

[27] = molecular target: T26, CK1γ1 (Homo sapiens, UniProt Q9HCP0); assay: Kinome profiler screen; format: biochemical; conditions: at 20,000 nM inhibitor; kinase activity remaining
T26 construct: purchased Millipore KinaseProfiler

[28] = molecular target: T27, mTOR (Homo sapiens, UniProt P42345); assay: Kinome profiler screen; format: biochemical; conditions: at 20,000 nM inhibitor; kinase activity remaining
T27 construct: purchased Millipore KinaseProfiler

[29] = molecular target: T28, Mnk2 (Homo sapiens, UniProt Q9HBH9); assay: Kinome profiler screen; format: biochemical; conditions: at 20,000 nM inhibitor; kinase activity remaining
T28 construct: purchased Millipore KinaseProfiler

[30] = molecular target: T29, STK33 (Homo sapiens, UniProt Q9BYT3); assay: Kinome profiler screen; format: biochemical; conditions: at 20,000 nM inhibitor; kinase activity remaining
T29 construct: purchased Millipore KinaseProfiler

[31] = molecular target: T30, Flt4 (Homo sapiens, UniProt P35916); assay: Kinome profiler screen; format: biochemical; conditions: for activity at 20 µM: at 20,000 nM inhibitor, kinase activity remaining
T30 construct: purchased Millipore

[32] = molecular target: T31, Abl (H396P) (Homo sapiens, UniProt P00519, H396P); assay: Kinome profiler screen; format: biochemical; conditions: at 20,000 nM inhibitor; kinase activity remaining
T31 construct: purchased Millipore KinaseProfiler

[33] = molecular target: T32, MAPKAP-K2 (Homo sapiens, UniProt P49137); assay: Kinome profiler screen; format: biochemical; conditions: at 20,000 nM inhibitor; kinase activity remaining
T32 construct: purchased Millipore KinaseProfiler

[34] = molecular target: JNK3 (Homo sapiens, UniProt P53779); assay: Kinome profiler screen; format: biochemical; conditions: for activity at 20 µM: at 20,000 nM inhibitor, kinase activity remaining
[35] = molecular target: T33, MRCKα (Homo sapiens, UniProt Q5VT25); assay: Kinome profiler screen; format: biochemical; conditions: at 20,000 nM inhibitor; kinase activity remaining
T33 construct: purchased Millipore KinaseProfiler

[36] = molecular target: T34, Fyn (Homo sapiens, UniProt P06241); assay: Kinome profiler screen; format: biochemical; conditions: at 20,000 nM inhibitor; kinase activity remaining
T34 construct: purchased Millipore KinaseProfiler

[37] = molecular target: T35, GSK3β (Homo sapiens, UniProt P49841); assay: Kinome profiler screen; format: biochemical; conditions: at 20,000 nM inhibitor; kinase activity remaining
T35 construct: purchased Millipore KinaseProfiler

[38] = molecular target: T36, NEK6 (Homo sapiens, UniProt Q9HC98); assay: Kinome profiler screen; format: biochemical; conditions: at 20,000 nM inhibitor; kinase activity remaining
T36 construct: purchased Millipore KinaseProfiler

[39] = molecular target: T37, Rsk3 (Homo sapiens, UniProt Q15349); assay: Kinome profiler screen; format: biochemical; conditions: at 20,000 nM inhibitor; kinase activity remaining
T37 construct: purchased Millipore KinaseProfiler

[40] = test system: BV-2 microglial cells; assay: cells; format: cell-based, murine; conditions: BV-2 cells
[41] = molecular target: T38, PI3 Kinase (p110α/p65α)(m) (Mus musculus, UniProt P42337); assay: Kinome profiler screen; format: biochemical; conditions: at 20,000 nM inhibitor; kinase activity remaining
T38 construct: purchased Millipore KinaseProfiler

[42] = molecular target: T39, ARK5 (Homo sapiens, UniProt O60285); assay: Kinome profiler screen; format: biochemical; conditions: at 20,000 nM inhibitor; kinase activity remaining
T39 construct: purchased Millipore KinaseProfiler

[43] = molecular target: T40, EphA7 (Homo sapiens, UniProt Q15375); assay: Kinome profiler screen; format: biochemical; conditions: for activity at 20 µM: at 20,000 nM inhibitor, kinase activity remaining
T40 construct: purchased Millipore

[44] = at 20,000 nM inhibitor, kinase activity remaining, read-out: % Activity

Sequence of JNK3 (P53779 whole entry): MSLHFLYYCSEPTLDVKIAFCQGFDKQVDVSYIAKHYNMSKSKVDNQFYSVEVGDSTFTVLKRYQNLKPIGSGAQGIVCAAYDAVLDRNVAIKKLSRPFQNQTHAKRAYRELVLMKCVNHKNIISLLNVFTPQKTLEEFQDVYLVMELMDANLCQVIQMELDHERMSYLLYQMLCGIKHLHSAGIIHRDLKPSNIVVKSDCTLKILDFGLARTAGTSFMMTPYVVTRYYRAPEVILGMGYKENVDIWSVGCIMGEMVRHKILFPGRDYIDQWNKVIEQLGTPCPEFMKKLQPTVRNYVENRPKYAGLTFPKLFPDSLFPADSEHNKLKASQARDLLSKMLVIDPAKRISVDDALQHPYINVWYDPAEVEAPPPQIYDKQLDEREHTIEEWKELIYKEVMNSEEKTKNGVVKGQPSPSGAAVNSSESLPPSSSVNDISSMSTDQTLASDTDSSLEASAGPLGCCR
T40 sequence (Q15375 28-998): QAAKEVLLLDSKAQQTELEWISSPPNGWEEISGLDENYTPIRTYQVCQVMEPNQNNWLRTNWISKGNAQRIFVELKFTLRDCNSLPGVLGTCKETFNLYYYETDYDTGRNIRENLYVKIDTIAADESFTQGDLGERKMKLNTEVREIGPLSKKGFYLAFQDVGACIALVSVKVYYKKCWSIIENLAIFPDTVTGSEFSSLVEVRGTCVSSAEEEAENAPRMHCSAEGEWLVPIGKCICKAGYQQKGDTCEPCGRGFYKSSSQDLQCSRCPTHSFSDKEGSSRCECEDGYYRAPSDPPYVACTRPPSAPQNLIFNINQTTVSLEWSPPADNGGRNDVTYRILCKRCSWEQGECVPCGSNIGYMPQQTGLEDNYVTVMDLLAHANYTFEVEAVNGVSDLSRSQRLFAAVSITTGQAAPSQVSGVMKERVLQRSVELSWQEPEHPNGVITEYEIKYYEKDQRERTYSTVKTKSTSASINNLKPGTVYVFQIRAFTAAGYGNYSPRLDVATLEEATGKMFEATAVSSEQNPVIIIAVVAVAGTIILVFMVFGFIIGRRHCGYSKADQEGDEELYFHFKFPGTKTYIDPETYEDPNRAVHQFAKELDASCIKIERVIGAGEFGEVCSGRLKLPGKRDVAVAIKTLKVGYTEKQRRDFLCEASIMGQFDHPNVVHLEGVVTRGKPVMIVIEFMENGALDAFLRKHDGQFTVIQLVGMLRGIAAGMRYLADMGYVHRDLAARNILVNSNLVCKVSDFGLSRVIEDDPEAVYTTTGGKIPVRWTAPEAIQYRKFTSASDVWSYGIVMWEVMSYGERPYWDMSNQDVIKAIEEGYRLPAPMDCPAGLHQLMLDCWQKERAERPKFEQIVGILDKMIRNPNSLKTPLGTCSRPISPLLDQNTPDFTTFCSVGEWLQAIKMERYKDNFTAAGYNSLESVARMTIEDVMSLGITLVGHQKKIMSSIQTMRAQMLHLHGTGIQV
T25 sequence (O94804 whole entry): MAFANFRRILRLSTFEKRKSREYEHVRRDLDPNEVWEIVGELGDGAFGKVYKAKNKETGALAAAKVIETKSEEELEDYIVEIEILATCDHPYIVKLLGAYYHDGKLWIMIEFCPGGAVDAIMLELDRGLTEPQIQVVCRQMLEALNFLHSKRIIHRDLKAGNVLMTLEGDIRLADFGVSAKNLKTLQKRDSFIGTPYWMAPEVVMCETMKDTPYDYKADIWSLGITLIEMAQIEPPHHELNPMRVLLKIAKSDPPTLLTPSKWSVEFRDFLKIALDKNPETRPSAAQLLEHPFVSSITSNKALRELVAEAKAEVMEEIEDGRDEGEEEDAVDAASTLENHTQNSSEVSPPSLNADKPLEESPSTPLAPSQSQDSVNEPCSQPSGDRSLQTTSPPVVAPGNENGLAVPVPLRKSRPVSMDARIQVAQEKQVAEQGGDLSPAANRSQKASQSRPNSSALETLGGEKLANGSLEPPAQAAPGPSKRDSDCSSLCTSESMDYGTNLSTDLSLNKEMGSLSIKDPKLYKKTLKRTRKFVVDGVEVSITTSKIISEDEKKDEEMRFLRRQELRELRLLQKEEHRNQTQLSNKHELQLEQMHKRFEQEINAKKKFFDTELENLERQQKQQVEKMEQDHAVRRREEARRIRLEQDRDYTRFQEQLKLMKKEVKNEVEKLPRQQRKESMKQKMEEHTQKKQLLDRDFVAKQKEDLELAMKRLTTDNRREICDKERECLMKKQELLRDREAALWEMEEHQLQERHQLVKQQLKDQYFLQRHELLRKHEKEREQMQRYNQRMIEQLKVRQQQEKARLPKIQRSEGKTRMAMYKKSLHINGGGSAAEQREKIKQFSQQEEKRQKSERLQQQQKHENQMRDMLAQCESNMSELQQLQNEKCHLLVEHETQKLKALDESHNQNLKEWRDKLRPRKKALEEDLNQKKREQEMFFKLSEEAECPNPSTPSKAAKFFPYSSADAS
T30 sequence (P35916 25-1363): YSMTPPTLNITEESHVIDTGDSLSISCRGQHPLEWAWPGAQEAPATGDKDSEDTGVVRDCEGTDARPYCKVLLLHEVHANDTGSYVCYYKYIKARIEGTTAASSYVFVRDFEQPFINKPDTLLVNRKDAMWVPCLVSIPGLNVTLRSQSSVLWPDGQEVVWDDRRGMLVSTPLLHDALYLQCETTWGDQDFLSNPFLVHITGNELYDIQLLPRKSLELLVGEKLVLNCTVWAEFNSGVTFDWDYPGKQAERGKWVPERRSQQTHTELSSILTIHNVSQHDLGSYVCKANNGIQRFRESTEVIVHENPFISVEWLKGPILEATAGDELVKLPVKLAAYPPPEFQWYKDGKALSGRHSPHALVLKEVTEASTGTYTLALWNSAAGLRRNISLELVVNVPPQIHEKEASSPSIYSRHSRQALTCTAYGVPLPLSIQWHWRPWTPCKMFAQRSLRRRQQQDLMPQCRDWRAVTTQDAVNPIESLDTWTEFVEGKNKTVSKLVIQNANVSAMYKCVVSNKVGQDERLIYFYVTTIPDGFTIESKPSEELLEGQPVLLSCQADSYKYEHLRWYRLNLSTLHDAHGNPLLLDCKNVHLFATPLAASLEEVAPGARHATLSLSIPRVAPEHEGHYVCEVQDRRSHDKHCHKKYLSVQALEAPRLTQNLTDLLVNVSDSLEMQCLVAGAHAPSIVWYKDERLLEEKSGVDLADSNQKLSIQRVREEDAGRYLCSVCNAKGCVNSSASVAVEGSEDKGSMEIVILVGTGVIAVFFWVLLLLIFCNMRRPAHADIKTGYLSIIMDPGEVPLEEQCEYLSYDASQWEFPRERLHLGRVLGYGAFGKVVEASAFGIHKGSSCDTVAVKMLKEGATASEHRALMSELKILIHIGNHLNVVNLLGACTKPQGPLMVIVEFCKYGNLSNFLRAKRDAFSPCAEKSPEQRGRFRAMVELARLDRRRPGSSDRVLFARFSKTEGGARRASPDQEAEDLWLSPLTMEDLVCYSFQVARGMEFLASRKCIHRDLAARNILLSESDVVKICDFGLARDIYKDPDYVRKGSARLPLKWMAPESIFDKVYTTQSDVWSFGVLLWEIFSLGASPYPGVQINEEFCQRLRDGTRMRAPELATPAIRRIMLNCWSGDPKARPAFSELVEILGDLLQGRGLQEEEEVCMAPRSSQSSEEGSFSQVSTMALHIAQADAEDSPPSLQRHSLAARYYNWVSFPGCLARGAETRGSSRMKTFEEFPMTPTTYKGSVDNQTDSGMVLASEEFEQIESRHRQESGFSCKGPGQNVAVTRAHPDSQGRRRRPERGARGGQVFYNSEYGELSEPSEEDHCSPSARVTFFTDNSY
T13 sequence (O60674 whole entry): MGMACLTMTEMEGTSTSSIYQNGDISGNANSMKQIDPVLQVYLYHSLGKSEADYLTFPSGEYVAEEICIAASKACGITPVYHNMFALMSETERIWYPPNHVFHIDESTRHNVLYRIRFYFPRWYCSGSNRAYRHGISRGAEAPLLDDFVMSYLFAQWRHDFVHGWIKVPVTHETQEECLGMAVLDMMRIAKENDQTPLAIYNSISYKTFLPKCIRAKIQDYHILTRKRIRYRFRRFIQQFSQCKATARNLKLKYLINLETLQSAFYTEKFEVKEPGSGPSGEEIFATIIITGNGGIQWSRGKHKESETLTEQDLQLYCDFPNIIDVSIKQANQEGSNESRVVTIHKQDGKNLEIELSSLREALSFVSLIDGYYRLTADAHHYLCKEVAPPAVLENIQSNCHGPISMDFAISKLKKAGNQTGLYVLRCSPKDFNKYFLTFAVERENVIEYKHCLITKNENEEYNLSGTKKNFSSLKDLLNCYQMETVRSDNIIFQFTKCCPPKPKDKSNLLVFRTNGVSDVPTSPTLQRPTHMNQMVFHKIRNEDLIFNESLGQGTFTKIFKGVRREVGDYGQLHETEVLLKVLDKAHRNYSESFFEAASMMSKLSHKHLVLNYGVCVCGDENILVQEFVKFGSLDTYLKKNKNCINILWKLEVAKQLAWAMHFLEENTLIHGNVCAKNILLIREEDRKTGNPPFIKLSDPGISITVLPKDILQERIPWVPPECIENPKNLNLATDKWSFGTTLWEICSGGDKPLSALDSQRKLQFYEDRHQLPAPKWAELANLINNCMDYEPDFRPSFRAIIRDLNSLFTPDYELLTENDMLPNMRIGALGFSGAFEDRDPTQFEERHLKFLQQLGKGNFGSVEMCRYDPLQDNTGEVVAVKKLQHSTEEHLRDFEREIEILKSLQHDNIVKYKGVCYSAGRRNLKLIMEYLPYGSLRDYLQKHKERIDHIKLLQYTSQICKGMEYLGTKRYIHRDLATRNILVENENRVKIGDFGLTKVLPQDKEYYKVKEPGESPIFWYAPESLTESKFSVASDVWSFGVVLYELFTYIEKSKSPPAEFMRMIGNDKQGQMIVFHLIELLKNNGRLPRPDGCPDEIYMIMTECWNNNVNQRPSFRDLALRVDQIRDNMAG

## CN(C)c1cc(-c2ccncc2)c(-c2ccc3ccccc3c2)nn1 [MW108, N, N-dimethyl-6-(naphthalen-2-yl)-5-(pyridin-4-yl)pyridazin-3-amine]
[1]
  activity at 20 µM: 90%
[2]
  activity at 20 µM: 100%
[3]
  IL-1β production with diverse TLR ligands: suppressed IL-1β production
[4]
  activity at 20 µM: 98%
[5]
  activity at 20 µM: 62%
[6]
  activity at 20 µM: 105%
[7]
  activity at 20 µM: 96%
[8]
  activity at 20 µM: 87%
[9]
  activity at 20 µM: 106%
[10]
  activity at 20 µM: 88%
[11]
  activity at 20 µM: 100%
[12]
  activity at 20 µM: 73%
[13]
  activity at 20 µM: 94%
[14]
  activity at 20 µM: 98%
[15]
  activity at 20 µM: 90%
[16]
  activity at 20 µM: 109%
[17]
  activity at 20 µM: 78%
[18]
  activity at 20 µM: 91%
[19]
  activity at 20 µM: 98%
[20]
  activity at 20 µM: 92%
[21]
  activity at 20 µM: 104%
[22]
  activity at 20 µM: 97%
[23]
  activity at 20 µM: 106%
[24]
  activity at 20 µM: 91%
[25]
  activity at 20 µM: 101%
[26]
  IC50: > 30000 nM
  activity at 20 µM: 48%
[27]
  activity at 20 µM: 101%
[28]
  activity at 20 µM: 92%
[29]
  activity at 20 µM: 99%
[30]
  activity at 20 µM: 106%
[31]
  IC50: 4910 nM
  activity at 20 µM: 11%
[32]
  activity at 20 µM: 94%
[33]
  activity at 20 µM: 103%
[34]
  IC50: 1260 nM
  activity at 20 µM: 5%
[35]
  activity at 20 µM: 107%
[36]
  activity at 20 µM: 95%
[37]
  activity at 20 µM: 97%
[38]
  activity at 20 µM: 103%
[39]
  activity at 20 µM: 83%
[40]
  LPS-induced IL-1β production: inhibited LPS-induced IL-1β production in a concentration-dependent manner
[40]; Mus musculus, 100 ng/ml LPS, 18 hrs, read-out: IC50, inhibition of IL-1β overproduction
  IC50: 610 ± 20 nM
[41]
  activity at 20 µM: 101%
[42]
  activity at 20 µM: 98%
[43]
  IC50: 18900 nM
  activity at 20 µM: 35%

## CN(C)c1cc(-c2ccncc2)c(-c2cccc3ccccc23)nn1 [MW181, N,N-dimethyl-6-(naphthalen-1-yl)-5-(pyridin-4-yl)pyridazin-3-amine]
[1]
  activity at 20 µM: 91%
[2]
  activity at 20 µM: 105%
[3]
  IL-1β production with diverse TLR ligands: suppressed IL-1β production
[4]
  activity at 20 µM: 99%
[5]
  activity at 20 µM: 89%
[6]
  activity at 20 µM: 106%
[7]
  activity at 20 µM: 97%
[8]
  activity at 20 µM: 112%
[9]
  activity at 20 µM: 99%
[10]
  activity at 20 µM: 88%
[11]
  activity at 20 µM: 105%
[12]
  activity at 20 µM: 88%
[13]
  activity at 20 µM: 102%
[14]
  activity at 20 µM: 111%
[15]
  activity at 20 µM: 98%
[16]
  activity at 20 µM: 108%
[17]; [44]
  activity at 20 µM: 109%
[18]; [44]
  activity at 20 µM: 109%
[19]; [44]
  activity at 20 µM: 105%
[20]
  activity at 20 µM: 90%
[21]
  activity at 20 µM: 87%
[22]
  activity at 20 µM: 103%
[23]
  activity at 20 µM: 83%
[24]
  activity at 20 µM: 93%
[25]
  activity at 20 µM: 106%
[26]
  activity at 20 µM: 84%
[27]
  activity at 20 µM: 101%
[28]
  activity at 20 µM: 109%
[29]
  activity at 20 µM: 99%
[30]
  activity at 20 µM: 99%
[31]
  activity at 20 µM: 98%
[32]
  activity at 20 µM: 101%
[33]
  activity at 20 µM: 103%
[34]
  activity at 20 µM: 12%
[34]; concentration-dependent follow-up of profiler hit, read-out: IC50
  IC50: 2400 nM
[35]
  activity at 20 µM: 103%
[36]
  activity at 20 µM: 109%
[37]
  activity at 20 µM: 92%
[38]
  activity at 20 µM: 92%
[39]
  activity at 20 µM: 114%
[40]
  LPS-induced IL-1β production: inhibited LPS-induced IL-1β production in a concentration-dependent manner
[41]
  activity at 20 µM: 100%
[42]
  activity at 20 µM: 103%
[43]
  activity at 20 µM: 77%

From article PMC3694096, “Development of Novel In Vivo Chemical Probes to Address CNS Protein Kinase Involvement in Synaptic Dysfunction” (PLoS ONE, 2013)
